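Cultured in 96-well plates, cells were exposed to test compound for 48 hours across five concentrations. At the TGI there is no net growth.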

The values that follow come from PubChem BioAssay (NCI).

Test systems include ACHN renal; CCRF-CEM leukemia; K-562 leukemia; LOX IMVI melanoma; OVCAR-5 ovarian; CAKI-1 renal; SNB-19 CNS; SR leukemia.
Experiment in all cases: NCI anticancer screen, dose series, 48 h

In the case of `CCN(CC)CC(C(=O)Nc1c(C)cccc1C)/C(C)=N/NC(N)=S` (configuration not stated), the TGI with ACHN renal, with CCRF-CEM leukemia, in the assay on K-562 leukemia, in the assay on LOX IMVI melanoma and with OVCAR-5 ovarian was over 100 µM throughout.
With `Cc1nc2c(=O)n(C)c(=O)nc-2n(-c2ccc(Cl)cc2)c1C`, the TGI with ACHN renal, in the assay with CAKI-1 renal, in the assay on CCRF-CEM leukemia, with K-562 leukemia, in the assay on OVCAR-5 ovarian and in the assay with SNB-19 CNS was over 100 µM in each case.
On to `O=C1c2ccccc2CC1C1(O)C(=O)Nc2c(Cl)cc(Cl)cc21` (configuration not stated), for which the TGI with ACHN renal, in the assay with CAKI-1 renal, in the assay with CCRF-CEM leukemia, in the assay on K-562 leukemia, with LOX IMVI melanoma and in the assay on OVCAR-5 ovarian was over 100 µM in each case. The TGI in the assay with SNB-19 CNS was over 100 µM.
On to `Cc1ccc(S(=O)(=O)c2ccccn2)cc1`, for which the TGI in the assay on ACHN renal is over 100 µM; in the assay on CAKI-1 renal it was over 100 µM; in the assay on CCRF-CEM leukemia it was over 100 µM; in the assay with K-562 leukemia, over 100 µM; in the assay on LOX IMVI melanoma, over 100 µM; in the assay on OVCAR-5 ovarian, 97.2 µM. In the assay on SNB-19 CNS, this compound returned a TGI of over 100 µM.
For the compound `O=S(O)CCCSSCCCCSSCCCS(=O)O`, the TGI in the assay on ACHN renal, with CAKI-1 renal, in the assay with CCRF-CEM leukemia, with K-562 leukemia, in the assay on LOX IMVI melanoma and in the assay on OVCAR-5 ovarian was over 100 µM each time. Further, in the assay on SNB-19 CNS, the TGI is over 100 µM.
For `CC/C(=C(\c1ccccc1)c1ccc(OCC[N+](C)(C)C)cc1)c1ccccc1`, the TGI is 34.6 µM in the assay with ACHN renal; 32.2 µM with CAKI-1 renal; 26.1 µM with CCRF-CEM leukemia; 19.9 µM in the assay with K-562 leukemia; 27.7 µM in the assay on LOX IMVI melanoma; 37.1 µM in the assay on SNB-19 CNS.
Take `CCCCCC1C2C(=O)NC(=O)C1C(=O)NC2=O` (configuration not stated): the TGI with ACHN renal, in the assay with CAKI-1 renal, in the assay with CCRF-CEM leukemia, with K-562 leukemia, in the assay on LOX IMVI melanoma and in the assay on OVCAR-5 ovarian was over 100 µM throughout. The same compound had a TGI in the assay on SNB-19 CNS of over 100 µM.
For the compound `Cc1ccc(S(=O)(=O)NC2(C=O)CCC(C(C)(C)C)CC2)cc1` (configuration not stated), the TGI with ACHN renal was over 100 µM; in the assay on CAKI-1 renal, over 100 µM; in the assay with K-562 leukemia it was 70.8 µM; in the assay on OVCAR-5 ovarian, over 100 µM; in the assay on SNB-19 CNS, over 100 µM; with SR leukemia, 36.9 µM.
Consider `O=C(Nc1cccc(Cl)c1)c1cc2cc(N=Nc3ccc(Br)cc3)ccc2oc1=O`, for which the TGI in the assay with ACHN renal was over 100 µM; in the assay with CAKI-1 renal, over 100 µM; in the assay with K-562 leukemia it was over 100 µM; in the assay with LOX IMVI melanoma it was 45.1 µM; in the assay with OVCAR-5 ovarian, 58 µM; in the assay on SNB-19 CNS, over 100 µM.
As to `O=C(Cc1nc2ccccc2s1)C(=O)Nc1ccccc1C(F)(F)F`, the TGI in the assay with ACHN renal, with CAKI-1 renal, with CCRF-CEM leukemia, with K-562 leukemia, in the assay on LOX IMVI melanoma and in the assay with OVCAR-5 ovarian was over 100 µM throughout. The TGI in the assay on SNB-19 CNS is over 100 µM.
As for `Cc1cn2cc(-c3ccncc3)nc2s1`, the TGI with ACHN renal was over 100 µM; with CAKI-1 renal, over 100 µM; in the assay with CCRF-CEM leukemia, over 78.1 µM; in the assay with K-562 leukemia it was over 100 µM; in the assay on LOX IMVI melanoma, over 84.4 µM; with OVCAR-5 ovarian, over 100 µM. In addition, the TGI in the assay on SNB-19 CNS was over 100 µM.
As to `CC1CCCC2(O1)OC1CC(=O)OC1C1=C2C(=O)c2ccccc2C1=O` (configuration not stated), the TGI stood at 15 µM in the assay on ACHN renal; 7.13 µM with CAKI-1 renal; 9.29 µM in the assay on LOX IMVI melanoma; 35 µM with OVCAR-5 ovarian; 30.5 µM in the assay with SNB-19 CNS.
As for `O=c1c2ccccc2nc(-c2ccccc2Cl)n1NC1OC(CO)C(O)C(O)C1O` (configuration not stated), the TGI with ACHN renal, in the assay on CAKI-1 renal, with CCRF-CEM leukemia, in the assay on K-562 leukemia, with OVCAR-5 ovarian and in the assay on SNB-19 CNS was over 100 µM each time.
In the case of `COCC(O)CN1C(N)=NC(O)C1O` (configuration not stated), the TGI with ACHN renal, with CAKI-1 renal, in the assay with LOX IMVI melanoma, with OVCAR-5 ovarian, with SNB-19 CNS and in the assay with SR leukemia was over 100 µM in each case.
As for `COc1cc(C2C(C(=O)Nc3ccc(Cl)c(Cl)c3)=C(C)NC(C)=C2C(=O)Nc2ccc(Cl)c(Cl)c2)ccc1O`, the TGI in the assay with ACHN renal stood at 32.9 µM; in the assay with CAKI-1 renal it was 34.1 µM; with CCRF-CEM leukemia it was 13.5 µM; in the assay with K-562 leukemia it was 26.2 µM; in the assay on LOX IMVI melanoma it was 33.9 µM; with OVCAR-5 ovarian, 38.8 µM. In the assay with SNB-19 CNS, this compound came in with a TGI of 25.6 µM.
For the compound `O=C1[C@@H]2C3C=CC([C@H]4C(=O)N(CO)C(=O)[C@@H]34)[C@@H]2C(=O)N1CO`, the TGI in the assay on ACHN renal is over 83.5 µM; in the assay with CAKI-1 renal, over 100 µM; in the assay on CCRF-CEM leukemia, 59.3 µM; in the assay on K-562 leukemia, over 100 µM; in the assay on LOX IMVI melanoma it was over 61 µM; in the assay with OVCAR-5 ovarian, over 100 µM. The compound further yielded a TGI with SNB-19 CNS of over 100 µM.
